From article PMC8523698, “Preclinical characterization of an intravenous coronavirus 3CL protease inhibitor for the potential treatment of COVID19” (Nature Communications, 2021)
“And” between values parts separate entries of the source, which are not always exact repeats. Identical values can stand only once.

Key:
MRC-5 cells = assay: Cytotoxicity in MRC-5 cells; conditions: for % Effect: CC50 run 30-Apr-2020
CYP3A4/5 = assay: in vitro; conditions: human, microsomes, pH 7.4, Percent of Control Activity, CYP 3A4/5 (mdz)
[1] = Plasma protein binding by equilibrium dialysis; conditions: dog plasma, 3.44 uM; for fraction unbound at 6 h, 3.44 uM: dog, plasma
OCT2 = molecular target: T1, OCT2 (Homo sapiens, UniProt O15244); assay: Transporter inhibition using transfected HEK293 cells; conditions: IC50, [14C]Metformin (20 µM)
T1 sequence (O15244 1-555): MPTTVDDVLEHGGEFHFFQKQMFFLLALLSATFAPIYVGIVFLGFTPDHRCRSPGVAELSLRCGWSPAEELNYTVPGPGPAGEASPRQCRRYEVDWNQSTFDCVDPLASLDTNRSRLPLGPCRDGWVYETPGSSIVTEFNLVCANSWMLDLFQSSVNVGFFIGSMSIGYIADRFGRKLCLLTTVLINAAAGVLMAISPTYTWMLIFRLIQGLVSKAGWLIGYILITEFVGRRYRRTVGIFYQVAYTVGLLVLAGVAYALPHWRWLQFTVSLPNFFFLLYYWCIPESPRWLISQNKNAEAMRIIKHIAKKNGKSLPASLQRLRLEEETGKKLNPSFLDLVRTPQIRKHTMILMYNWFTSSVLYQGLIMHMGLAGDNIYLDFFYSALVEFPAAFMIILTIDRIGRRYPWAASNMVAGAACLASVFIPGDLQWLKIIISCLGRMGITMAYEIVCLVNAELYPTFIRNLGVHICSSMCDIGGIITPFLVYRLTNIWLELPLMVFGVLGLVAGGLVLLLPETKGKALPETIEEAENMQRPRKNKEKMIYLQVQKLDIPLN

OAT3 = molecular target: T2, OAT3 (Homo sapiens, UniProt Q8TCC7); assay: as above; conditions: IC50, [3H]ES (0.1 µM)
T2 sequence (Q8TCC7 1-542): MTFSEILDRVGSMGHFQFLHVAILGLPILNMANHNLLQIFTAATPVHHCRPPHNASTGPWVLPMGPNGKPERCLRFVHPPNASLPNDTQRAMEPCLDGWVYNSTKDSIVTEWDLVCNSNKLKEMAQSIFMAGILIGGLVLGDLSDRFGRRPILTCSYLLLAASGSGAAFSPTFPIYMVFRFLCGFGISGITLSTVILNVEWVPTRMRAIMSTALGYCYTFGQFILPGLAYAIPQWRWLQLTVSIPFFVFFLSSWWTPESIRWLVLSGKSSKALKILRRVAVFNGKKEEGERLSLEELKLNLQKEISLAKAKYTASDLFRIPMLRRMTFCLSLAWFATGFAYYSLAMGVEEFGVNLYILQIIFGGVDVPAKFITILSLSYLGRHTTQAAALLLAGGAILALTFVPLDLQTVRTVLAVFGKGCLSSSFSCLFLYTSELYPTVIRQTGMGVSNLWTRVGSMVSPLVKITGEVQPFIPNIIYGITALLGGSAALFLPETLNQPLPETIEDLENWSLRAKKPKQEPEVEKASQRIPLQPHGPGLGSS

in vitro = conditions: African green monkey, CC50

Q: For `COc1cccc2[nH]c(C(=O)N[C@@H](CC(C)C)C(=O)N[C@@H](C[C@@H]3CCNC3=O)C(=O)CO)cc12` [PF-00835231-00], which “% Well Effect” value (MRC-5 cells; 0.0316422 uM, minus efflux inhibitor, CC50 run 24-Apr-2020) is on record?
A: 5.91% and -1.40%

Q: What about the “% Well Effect” value (MRC-5 cells; 0.100053 uM, minus efflux inhibitor, CC50 run 24-Apr-2020) of the same compound?
A: 0.31% and -2.42%

Q: What about the “% Well Effect” value (MRC-5 cells; 0.316367 uM, minus efflux inhibitor, CC50 run 24-Apr-2020) of the same compound?
A: 0.82% and -3.88%

Q: And the “% Well Effect” value (MRC-5 cells; 3.16311 uM, minus efflux inhibitor, CC50 run 24-Apr-2020)?
A: 2.27% and -2.51%

Q: What about the “% Well Effect” value (MRC-5 cells; 3.16311 uM, plus 0.5 uM efflux inhibitor, CC50 run 22-may-2020) of the same compound?
A: 2.26%

Q: And the “% Well Effect” value (MRC-5 cells; 3.16311 uM, plus 0.5 uM efflux inhibitor, CC50 run 24-Apr-2020)?
A: -4.43%

Q: And the “% Well Effect” value (MRC-5 cells; 10.0018 uM, minus efflux inhibitor, CC50 run 24-Apr-2020)?
A: 4.47% and -3.27%

Q: What about the “% Well Effect” value (MRC-5 cells; 10.0018 uM, plus 0.5 uM efflux inhibitor, CC50 run 22-may-2020) of the same compound?
A: 2.88%

Q: And the “% Well Effect” value (MRC-5 cells; 10.0018 uM, plus 0.5 uM efflux inhibitor, CC50 run 24-Apr-2020)?
A: -5.99%

Q: And the “% Well Effect” value (MRC-5 cells; 31.6256 uM, minus efflux inhibitor, CC50 run 24-Apr-2020)?
A: 0.83% and -8.49%

Q: What about the “% Well Effect” value (MRC-5 cells; 31.6256 uM, plus 0.5 uM efflux inhibitor, CC50 run 22-may-2020) of the same compound?
A: 5.31%

Q: And the “% Well Effect” value (MRC-5 cells; 31.6256 uM, plus 0.5 uM efflux inhibitor, CC50 run 24-Apr-2020)?
A: -3.70%

Q: And the “% Well Effect” value (MRC-5 cells; 100 uM, minus efflux inhibitor, CC50 run 24-Apr-2020)?
A: -3.72% and -12.98%

Q: What about the “% Well Effect” value (MRC-5 cells; 100 uM, plus 0.5 uM efflux inhibitor, CC50 run 22-may-2020) of the same compound?
A: -0.43%

Q: And the “% Well Effect” value (MRC-5 cells; 100 uM, plus 0.5 uM efflux inhibitor, CC50 run 24-Apr-2020)?
A: -3.29%

Q: And the “% Well Effect” value (MRC-5 cells; CC50 data, MRC-5 cells, run 22-may-2020, plate GCNS00043792A, [Assay] 0.031642 uM)?
A: -3.27% and -2.12%

Q: What about the “% Well Effect” value (MRC-5 cells; CC50 data, MRC-5 cells, run 22-may-2020, plate GCNS00043792A, [Assay] 0.100053 uM) of the same compound?
A: -1.81% and 2.13%

Q: What about the “% Well Effect” value (MRC-5 cells; CC50 data, MRC-5 cells, run 22-may-2020, plate GCNS00043792A, [Assay] 0.316367 uM) of the same compound?
A: -2.43% and 2.23%

Q: And the “% Well Effect” value (MRC-5 cells; CC50 data, MRC-5 cells, run 22-may-2020, plate GCNS00043792A, [Assay] 1.00035 uM)?
A: 1.33% and 1.48%

Q: What about the “% Well Effect” value (MRC-5 cells; CC50 data, MRC-5 cells, run 22-may-2020, plate GCNS00043792A, [Assay] 3.16311 uM) of the same compound?
A: -3.27%

Q: And the “% Well Effect” value (MRC-5 cells; CC50 data, MRC-5 cells, run 22-may-2020, plate GCNS00043792A, [Assay] 10.0018 uM)?
A: -1.55%

Q: And the “% Well Effect” value (MRC-5 cells; CC50 data, MRC-5 cells, run 22-may-2020, plate GCNS00043792A, [Assay] 31.6256 uM)?
A: 0.64%

Q: And the “% Well Effect” value (MRC-5 cells; CC50 data, MRC-5 cells, run 22-may-2020, plate GCNS00043792A, [Assay] 100 uM)?
A: -1.12%

Q: And the “% Well Effect” value (MRC-5 cells; CC50 data, MRC-5 cells, run 24-Apr-2020, plate GCNS00043676A, [Assay] 0.0316422 uM)?
A: -8.00% and -3.89%

Q: What about the “% Well Effect” value (MRC-5 cells; CC50 data, MRC-5 cells, run 24-Apr-2020, plate GCNS00043676A, [Assay] 0.100053 uM) of the same compound?
A: -11.58% and -9.10%

Q: And the “% Well Effect” value (MRC-5 cells; CC50 data, MRC-5 cells, run 24-Apr-2020, plate GCNS00043676A, [Assay] 0.316367 uM)?
A: -6.82% and -8.60%

Q: What about the “% Well Effect” value (MRC-5 cells; CC50 data, MRC-5 cells, run 24-Apr-2020, plate GCNS00043676A, [Assay] 1.00035 uM) of the same compound?
A: -10.61% and -9.50%

Q: What about the “% Well Effect” value (MRC-5 cells; CC50 data, MRC-5 cells, run 24-Apr-2020, plate GCNS00043676A, [Assay] 3.16311 uM) of the same compound?
A: -5.78%

Q: And the “% Well Effect” value (MRC-5 cells; CC50 data, MRC-5 cells, run 24-Apr-2020, plate GCNS00043676A, [Assay] 10.0018 uM)?
A: -3.01%

Q: What about the “% Well Effect” value (MRC-5 cells; CC50 data, MRC-5 cells, run 24-Apr-2020, plate GCNS00043676A, [Assay] 31.6256 uM) of the same compound?
A: -3.17%

Q: And the “% Well Effect” value (MRC-5 cells; CC50 data, MRC-5 cells, run 24-Apr-2020, plate GCNS00043676A, [Assay] 100 uM)?
A: 0.84%

Q: What about the “% Effect” value (MRC-5 cells; Concentration 0.78125, minus efflux inhibitor) of the same compound?
A: -1.26% and -6.59%

Q: What about the “% Effect” value (MRC-5 cells; Concentration 1.5625, minus efflux inhibitor) of the same compound?
A: -9.86% and -8.48%

Q: What about the “% Effect” value (MRC-5 cells; Concentration 3.125, minus efflux inhibitor) of the same compound?
A: -3.51% and -6.64%

Q: What about the “% Effect” value (MRC-5 cells; Concentration 6.25, minus efflux inhibitor) of the same compound?
A: -4.42% and -7.91%

Q: And the “% Effect” value (MRC-5 cells; Concentration 12.5, minus efflux inhibitor)?
A: -6.72% and -7.11%

Q: What about the “% Effect” value (MRC-5 cells; Concentration 25, minus efflux inhibitor) of the same compound?
A: -6.44% and -6.96%

Q: What about the “% Effect” value (MRC-5 cells; Concentration 50, minus efflux inhibitor) of the same compound?
A: -10.88% and -4.85%

Q: And the “% Effect” value (MRC-5 cells; Concentration 100, minus efflux inhibitor)?
A: -4.27% and -7.38%

Q: What does the source list for `COc1cccc2[nH]c(C(=O)N[C@@H](CC(C)C)C(=O)N[C@@H](C[C@@H]3CCNC3=O)C(=O)COP(=O)(O)O)cc12` [PF-07304814]?
A: CC50 (MRC-5 cells; MRC-5, plus 0.5 uM efflux inhibitor, one value per run date (N=3)): > 100 µM; activity at 0.01 µM (CYP3A4/5; 30-Minute Preincubation): 99.4%; activity at 0.01 µM (CYP3A4/5; Zero-Minute Preincubation): 102%; activity at 0.158 µM (CYP3A4/5; 30-Minute Preincubation): 102%; activity at 0.158 µM (CYP3A4/5; Zero-Minute Preincubation): 99.1%; activity at 0.398 µM (CYP3A4/5; 30-Minute Preincubation): 101%; activity at 0.398 µM (CYP3A4/5; Zero-Minute Preincubation): 99.3%; activity at 1 µM (CYP3A4/5; 30-Minute Preincubation): 99.2%; activity at 1 µM (CYP3A4/5; Zero-Minute Preincubation): 100%; activity at 15.8 µM (CYP3A4/5; 30-Minute Preincubation): 97.5%; activity at 15.8 µM (CYP3A4/5; Zero-Minute Preincubation): 102%; activity at 39.8 µM (CYP3A4/5; 30-Minute Preincubation): 97%; activity at 39.8 µM (CYP3A4/5; Zero-Minute Preincubation): 100%; activity at 100 µM (CYP3A4/5; 30-Minute Preincubation): 99.2%; activity at 100 µM (CYP3A4/5; Zero-Minute Preincubation): 101%; fraction unbound at 6 h, 3.44 uM ([1]; both, Beagle, pH 7.4, Individual fraction unbound, Beagle, male and female, Day 1): 0.322; fraction unbound at 6 h, 3.44 uM ([1]; both, Beagle, pH 7.4, Individual fraction unbound, Beagle, male and female, Day 2): 0.344; fraction unbound at 6 h, 3.44 uM ([1]; both, Beagle, pH 7.4, Individual fraction unbound, Beagle, male and female, Day 3): 0.303; Individual fraction unbound ([1]; Beagle, male and female, Day 1): 0.288 and 0.267 and 0.276; Individual fraction unbound ([1]; Beagle, male and female, Day 2): 0.33 and 0.389 and 0.349; Individual fraction unbound ([1]; Beagle, male and female, Day 3): 0.301 and 0.285 and 0.313; fraction unbound at 6 h, 3.44 uM ([1]; pH 7.4, fraction unbound Geomean, n=12): 0.312; IC50 (OCT2): > 300 µM; IC50 (OAT3): > 300 µM; CC50 (in vitro): > 100 µM
